{"source": "patent US6416965B2", "about": "“Screening methods for presqualene disphosphate analogs” (Brigham and Women's Hospital, priority 1997, dated 2002)", "test_system": "human neutrophils", "assay": "FMLP-stimulated 1,4,5-inositol triphosphate (IP3) formation as surrogate for phospholipase C activity", "type": "cell-based", "details": "for inhibition of FMLP-triggered IP3 formation: compound 1 μM, 5 min 37° C., FMLP 100 nM, 10 seconds", "procedure": "Neutrophils (10^7/500 μl) were electroporated (1.65 kV/cm, 250 μF, Ω∞, Invitrogen Electroporator VI) at 0° C. in the presence of 10−^9-10−^6 M compound VI, VIII, FDP, FMP, squalene or vehicle (ethanol 0.2%). After electroporation, cells, in cytochrome c (0.7 mg/ml), were exposed (10 minutes, 37° C.) to either cytochalasin b (5 μg/mL) and FMLP (10^−7 M)(a) or PMA ((10^−7 M)(b) and supernatants monitored at […]. Electroporation gave a 49.9% reduction in FMLP-stimulated NADPH oxidase compared to naive cells. Values (FIGS. 4a and 4b) represent the mean±SEM for n≧3, d≧6. For adhesion (FIGS. 4c and 4d), changes in light transmittance were monitored (as in Fiore, S., Nicolaou, K. C., Caulfield, T., Kataoka, H. & Serhan, C. N. Biochem. J. 266, 25-31 (1990), the teachings of which are incorporated herein by reference) after addition of compounds VI, VIII (1.6 μM) or vehicle (0.5 min) and FMLP (0.5-5 μM) (2.5 min). Cell viability remained>99%. Values represent the mean±SEM for n=3, d=9. 1,4,5-inositol-triphosphate levels were determined (Amersham) in fresh PMN (10^7 cells) exposed (5 minutes, 37° C.) to compound VI, compound VIII (1 μM) or vehicle and stimulated with FMLP (10^−7M, 37° C.) (as in FIG. 4e). % Inhibition after 10 second exposure to FMLP is reported as mean±SEM for n=4, d≧8. *p <0.05 in Student's paired t-test compared with control, while “NS” indicates no significant change compared to incubations in the presence of vehicle (ethanol 0.2%) alone. Stereochemistry of PSDP and PSMP (FIG. 4f) were assigned by routine methods (Poulter, C. D. and Rilling, H. C. Acc. Chem. Res. 11, 307-313, (1978), the teachings of which are hereby incorporated by reference).\nIn addition to PLD, phospholipase C plays a critical role in intracellular signaling via the hydrolysis of inositol lipids to diacyl glyceride (DAG) and inositol trisphosphate (IP3) to effect a cascade of cellular events in response to pro-inflammatory stimuli. DAG activates protein kinases and is converted, in part, to phosphatidic acid by DAG kinase. Therefore, PLC together with DAG kinase provides a second major source of phosphatidic acid in human neutrophils (Agwu, DE, et al., Journal of Clinical Investigation 1991; 88:531). […] To this end, the impact of PSDP on fMLP-stimulated IP3 formation as a surrogate for phospholipase C activity was examined (FIG. 4e).\nAmersham's D-myo-inositol 1,4,5-trisphosphate (IP3) [^3H] assay was used for this procedure (Amersham code TRK 1000, including product assay, the contents of which are incorporated herein by reference). The assay is based on procedures developed by Takata S. et al. J. Clin. Invest. 93:499 (1994) and Dillon S. B. et al. J. Biol. Chem. 262:11546 (1987), the contents of which are incorporated herein by reference in their entirety. [drawing 24] […]"}
{"smiles": "CC(C)=CCC/C(C)=C/CC/C(C)=C/C1C(COP(=O)(O)OP(=O)(O)O)C1(C)CC/C=C(\\C)CCC=C(C)C", "note": "(stereo in doubt) [Compound VI, presqualene diphosphate]", "values": [{"measurement": "inhibition of FMLP-triggered IP3 formation", "result": 56, "unit": "%"}, {"measurement": "inhibition of FMLP-triggered IP3 formation", "setting": "listed as PSDP", "result": "> 50", "unit": "%"}, {"measurement": "inhibition of 1,4,5-inositol-triphosphate formation", "setting": "nM-μM amounts", "result": "inhibited"}]}
